Key:
[1] = tested on: HIF1α transcriptional activity; type: cell-based; conditions: Homo sapiens, 24 h, read-out: Menu IC50 ± SEM
platelet aggregation = conditions: could lead to internal bleeding side effects; cited from earlier work

SMILES | IC50 [1] [nM] | inhibition of platelet aggregation (platelet aggregation)
CN1C(=O)[C@]2(Cc3cn([C@]45C[C@@]67SS[C@@](CO)(C(=O)N6[C@H]4Nc4ccccc45)N(C)C7=O)c4ccccc34)SS[C@@]1(CO)C(=O)N2C [Chetomin] | 40 ± 10 | –
OCc1ccc(-c2nn(Cc3ccccc3)c3ccccc23)o1 [YC-1, 3-(5′-hydroxymethyl-2′-furyl)-1-benzyl indazole] | – | strong inhibition of platelet aggregation
